Entries after “also recorded” stand apart in the source; their conditions may differ.
How the values were obtained:
NR0B1 mRNA = assay: Relative mRNA expression (qRT-PCR) of NR0B1 in TC-32 cells; type: cell-based; settings: 6 and 12 h treatments at GI50
Experimental: (§1) TC-32 cells were seeded in 6-well plates at a density of 300,000 cells/well. […] After 6 and 12 h treatments media was removed. Cells were washed with DPBS and 500 μL of 0.05% Trypsin with 0.53 mM EDTA (Corning, Corning, N.Y.) was added. After a 2-3 min incubation, cells detached from the plate and 1 mL of fresh RPMI media was immediately added. Cells were collected in 1.5 mL tubes on ice and centrifuged to a pellet at 1200× g for 5 min. Supernatant was removed and cell pellets were lysed with 600 μL of RLT lysis buffer (Qiagen, Hilden, Germany). Lysates were centrifuged through QIAshredder inserts for complete cell disruption (Qiagen, Hilden, Germany). RNeasy mini spin columns were used to isolate pure RNA (Qiagen, Hilden, Germany). RNA concentrations were measured using NanoDrop 2000 Spectrometer (Thermo Fisher Scientific, Waltham, Mass.) and a 100 ng/μL stock solution was prepared. RNA (1 μg) was used to prepare cDNA with a MultiScribe reverse transcriptase (Thermo Fisher Scientific, Waltham, Mass.). qRT-PCR reactions were conducted using Maxima SYBR green Taq DNA Polymerase (Thermo Fisher Scientific, Waltham, Mass.). EpMotion5070 (Eppendorf, Hamburg, Germany) robot was used to mix reactions in 384 well plates and thermocycling was completed on a QuantStudio 7 Flex (Thermo Fisher Scientific, Waltham, Mass.). […]

A549 cells = assay: 72 h GI50 assay in A549; settings: read-out: A549 GI50; 72 h growth inhibition
HeLa cells = assay: 72 h GI50 assay in HeLa; settings: read-out: HeLa GI50; 72 h growth inhibition
[1] = test system: ES-2 Ewing sarcoma cells (EWS-FLI1 Type 3); assay: 72 h GI50 assay in ES-2; settings: read-out: ES-2 EWS-FLI1 Type 3 GI50; 72 h growth inhibition
LNCaP cells = assay: 72 h GI50 assay in LNCaP; settings: read-out: LNCaP GI50; 72 h growth inhibition
DMS 114 cells = assay: 72 h GI50 assay in DMS 114; settings: read-out: DMS 114 GI50; 72 h growth inhibition
DU 145 cells = assay: 72 h GI50 assay in DU 145; settings: read-out: DU 145 GI50; 72 h growth inhibition
[2] = test system: TC-71 Ewing sarcoma cells (EWS-FLI1 Type 1); settings: 72 h growth inhibition
[3] = test system: NR0B1 promoter (binding promoter of EWS-FLI1); assay: NR0B1 promoter luciferase reporter assay in stably transfected TC-32 cells; type: cell-based; settings: 12 h treatment
From the text: Full-length NR0B1 promoter sequence was PCR amplified using Q5 high-fidelity DNA polymerase (New England Biolabs, Ipswich, Mass.) from genomic DNA of TC-32 cells and cloned into the pGLUC-Basic 2 vector (New England Biolabs, Ipswich, Mass.). XhoI and KpnI restriction sites were incorporated into the primers. After restriction enzyme (New England Biolabs, Ipswich, Mass.) digest and purification by gel electrophoresis, the target amplicon was ligated into the pGLUC-Basic 2 vector using T4 DNA ligase (Thermo Fisher Scientific, Waltham, Mass.). Chemically competent TOP10 E. coli cells were used to propagate vectors under ampicillin selection (100 μg/mL) (Thermo Fisher Scientific, Waltham, Mass.). The resulting vectors were extracted and purified using GeneJET plasmid prep kit (Thermo Fisher Scientific, Waltham, Mass.). […]
Selected TC-32 cells, expressing either NR0B1 or CMV luciferase reporter vectors, were seeded in clear 96-well plates at a density of 10,000 cells/well. […] Lysates (80 μL) were transferred to a white luminescence plate. Luciferase substrate, either coelenterazine or D-luciferin (50 μL of 1× solution), for NR0B1 or CMV vectors, respectively, was added in a Glomax 96 microplate luminometer (Promega, Madison, Wis.) and luminescence was immediately measured. […] Luminescence results were normalized to cell viability.

[4] = test system: TC-32 (Ewing sarcoma, EWS-FLI1 Type 1) cell line; settings: for TC-32 Ewing sarcoma EWS-FLI1 Type 1 GI50: 72 h growth inhibition, TC-32 cells; for GI50 ratio PC-3:TC-32: selectivity, GI50 in PC-3 over GI50 in TC-32
[5] = test system: A-673 Ewing sarcoma cells (EWS-FLI1 Type 1); assay: 72 h GI50 assay in A-673; settings: read-out: A-673 EWS-FLI1 Type 1 GI50; 72 h growth inhibition
CMV promoter = CMV promoter luciferase reporter assay in stably transfected TC-32 cells (non-specific control); type: cell-based; settings: 12 h, treated up to 10 μM
From the text: Full-length NR0B1 promoter sequence was PCR amplified using Q5 high-fidelity DNA polymerase (New England Biolabs, Ipswich, Mass.) from genomic DNA of TC-32 cells and cloned into the pGLUC-Basic 2 vector (New England Biolabs, Ipswich, Mass.). XhoI and KpnI restriction sites were incorporated into the primers. After restriction enzyme (New England Biolabs, Ipswich, Mass.) digest and purification by gel electrophoresis, the target amplicon was ligated into the pGLUC-Basic 2 vector using T4 DNA ligase (Thermo Fisher Scientific, Waltham, Mass.). Chemically competent TOP10 E. coli cells were used to propagate vectors under ampicillin selection (100 μg/mL) (Thermo Fisher Scientific, Waltham, Mass.). The resulting vectors were extracted and purified using GeneJET plasmid prep kit (Thermo Fisher Scientific, Waltham, Mass.). The purified vector was transfected into TC-32 cells using lipofectamine 3000 (Thermo Fisher Scientific, Waltham, Mass.) with subsequent G418 selection (1 mg/mL) (VWR, Radnor, Pa.). Separately, TC-32 cells were transfected with pCMV-Red Firefly Vector (Thermo Fisher Scientific, Waltham, Mass.) with subsequent puromycin selection (0.1 mg/mL) (Sigma, St. Louis, Mo.) as a control.
Selected TC-32 cells, expressing either NR0B1 or CMV luciferase reporter vectors, were seeded in clear 96-well plates at a density of 10,000 cells/well. […] After a 12 h treatment, media was removed and cells were washed 3 times with DPBS (Thermo Fisher Scientific, Waltham, Mass.). Cells were directly lysed on a plate shaker for 30 min at room temperature using 100 μL of passive membrane lysis solution. Lysates (80 μL) were transferred to a white luminescence plate. Luciferase substrate, either coelenterazine or D-luciferin (50 μL of 1× solution), for NR0B1 or CMV vectors, respectively, was added in a Glomax 96 microplate luminometer (Promega, Madison, Wis.) and luminescence was immediately measured. Delay before and after injections were set to the default of 0.4 s and a 10 s integration time was used. All reagents used in this assay were from the dual luciferase reporter assay system (Promega, Madison, Wis.). Concurrently, an additional 96 well plate was seeded and treated under the exact same conditions to determine cell viability using resazurin assay. Luminescence results were normalized to cell viability.

EWS-FLI1 mRNA = assay: Relative mRNA expression (qRT-PCR) of EWS-FLI1 in TC-32 cells; type: cell-based; settings: 6 and 12 h treatments at GI50
Experimental: as §1

[6] = test system: Ewing sarcoma cell lines (TC-32, 5838, RD-ES, TC-71, A-673, ES-2, ES-7, ES-8); assay: Median GI50 in panel of Ewing sarcoma cell lines; settings: for Ratio of Median GI50 non-Ewing sarcoma:Ewing sarcoma (Selectivity Index): median GI50 non-Ewing panel over Ewing panel; for GI50: read-out: Median GI50 in Ewing sarcoma cell lines, median over 8 Ewing sarcoma cell lines, 72 h; for Selectivity Index ratio Analogues:MTM (1): selectivity index relative to MTM (1)
PANC-1 cells = assay: 72 h GI50 assay in PANC-1; settings: read-out: PANC-1 GI50; 72 h growth inhibition

| SMILES | NR0B1 mRNA expression (NR0B1 mRNA) | GI50 (A549 cells) | GI50 (HeLa cells) | GI50 [1] | GI50 (LNCaP cells) | GI50 (DMS 114 cells) | GI50 (DU 145 cells) | TC-71 EWS-FLI1 Type 1 GI50 [2] | NR0B1 promoter driven luciferase signal [3] | TC-32 Ewing sarcoma EWS-FLI1 Type 1 GI50 [4] | GI50 ratio PC-3:TC-32 [4] | GI50 [5] | CMV promoter driven luciferase signal (CMV promoter) | CMV promoter driven luciferase signal (CMV promoter; listed as MTMSA-Phe-Trp (60)) | EWS-FLI1 mRNA expression (EWS-FLI1 mRNA) | Ratio of Median GI50 non-Ewing sarcoma:Ewing sarcoma (Selectivity Index) [6] | GI50 [6] | Selectivity Index ratio Analogues:MTM (1) [6] | GI50 (PANC-1 cells) | CMV promoter driven luciferase signal (CMV promoter; listed as MTMSA-Trp-Trp (61)) |
| --- | --- | --- | --- | --- | --- | --- | --- | --- | --- | --- | --- | --- | --- | --- | --- | --- | --- | --- | --- | --- |
| COC(=O)C(Cc1c[nH]c2ccccc12)NC(=O)C(Cc1ccccc1)NC(=O)C(OC)C1Cc2cc3cc(OC4CC(OC5CC(O)C(O)C(C)O5)C(O)C(C)O4)c(C)c(O)c3c(O)c2C(=O)C1OC1CC(OC2CC(OC3CC(C)(O)C(O)C(C)O3)C(O)C(C)O2)C(O)C(C)O1 (centres unmarked) [Analogue 60, MTMSA-Phe-Trp] | decreased | 2.85 µM | 0.557 µM | 0.078 µM | 1.61 µM | 1.14 µM | 0.4 µM | 0.044 µM | decreased | 0.047 µM | 24.0 | 0.168 µM | no effect at all; also recorded: did not decrease | Lack of effect | decreased | 19.1 | 0.052 µM | 12.7 | 0.574 µM |  |
| COC(=O)C(Cc1c[nH]c2ccccc12)NC(=O)C(Cc1c[nH]c2ccccc12)NC(=O)C(OC)C1Cc2cc3cc(OC4CC(OC5CC(O)C(O)C(C)O5)C(O)C(C)O4)c(C)c(O)c3c(O)c2C(=O)C1OC1CC(OC2CC(OC3CC(C)(O)C(O)C(C)O3)C(O)C(C)O2)C(O)C(C)O1 (centres unmarked) [Analogue 61, MTMSA-Trp-Trp] | decreased | 1.4 µM | 0.951 µM | 0.123 µM | 0.856 µM | 1.11 µM | 0.246 µM | 0.035 µM | decreased | 0.041 µM | 13.9 | 0.364 µM | no effect at all; also recorded: did not decrease |  | decreased | 15.6 | 0.055 µM | 10.4 | 0.64 µM | Lack of effect |

Source: patent publication US11224609B2, “Mithramycin derivatives having increased selectivity and anti-cancer activity” (University of Kentucky Research Foundation, priority 2017, dated 2022)
